Test results from ChEMBL document CHEMBL3627600, “Rapid synthesis and antimicrobial activity of novel 4-oxazolidinone heterocycles” (2015).
Converted amounts (≈) assume the structure as drawn.

Key:
Assay type in all cases: functional
Staphylococcus aureus [1] = experiment: Antimicrobial activity against methicillin-resistant Staphylococcus aureus ATCC 33591
Acinetobacter baumannii = experiment: Antimicrobial activity against Acinetobacter baumannii ATCC 19606
Staphylococcus aureus [2] = experiment: Antimicrobial activity against Staphylococcus aureus ATCC 29213

Structure (SMILES)	MIC (Staphylococcus aureus [1]) [µg/mL]	MIC (Acinetobacter baumannii) [µg/mL]	MIC (Staphylococcus aureus [2]) [µg/mL]
CCCCCC1NC(=O)/C(=C/c2cc(Br)c(OC)c(Br)c2)O1 (stereo not drawn)	32 (≈ 73.9 µM)	> 128	16 (≈ 36.9 µM)
CN[C@H](CC(C)C)C(=O)N[C@H]1C(=O)N[C@@H](CC(N)=O)C(=O)N[C@H]2C(=O)N[C@H]3C(=O)N[C@H](C(=O)N[C@H](C(=O)O)c4cc(O)cc(O)c4-c4cc3ccc4O)[C@H](O)c3ccc(c(Cl)c3)Oc3cc2cc(c3O[C@@H]2O[C@H](CO)[C@@H](O)[C@H](O)[C@H]2O[C@H]2C[C@](C)(N)[C@H](O)[C@H](C)O2)Oc2ccc(cc2Cl)[C@H]1O [VANCOMYCIN]		> 128	
CCCCCC1NC(=O)/C(=C/c2ccc(C(F)(F)F)cc2)O1 (stereo not drawn)	16 (≈ 51.1 µM)	> 128	16 (≈ 51.1 µM)
CCCCCC1NC(=O)/C(=C/c2ccccc2)O1 (stereo not drawn)	128 (≈ 522 µM)	> 128	64 (≈ 261 µM)
CCCCCC1NC(=O)/C(=C/c2ccc([N+](=O)[O-])cc2)O1 (stereo not drawn)	32 (≈ 110 µM)	> 128	32 (≈ 110 µM)
COc1c(Br)cc(/C=C2\O[C@H]([C@@H](Cl)CCNC(=N)N)NC2=O)cc1Br	20 (≈ 40.3 µM)	100 (≈ 201 µM)	12.5 (≈ 25.2 µM)
COc1c(Br)cc(/C=C2\O[C@H](CCCNC(=N)N)NC2=O)cc1Br	32 (≈ 69.2 µM)	> 128	32 (≈ 69.2 µM)
CCCCCC1NC(=O)/C(=C/c2ccc(OC)cc2)O1 (stereo not drawn)	> 128	> 128	> 128
CCCCCC1NC(=O)/C(=C/c2ccc(F)cc2)O1 (stereo not drawn)	> 128	> 128	> 128
CN(C)[C@@H]1C(O)=C(C(N)=O)C(=O)[C@@]2(O)C(O)=C3C(=O)c4c(O)cccc4[C@@](C)(O)[C@H]3C[C@@H]12 [TETRACYCLINE]	128 (≈ 288 µM)	2 (≈ 4.5 µM)	0.25 (≈ 0.563 µM)
CCCCCC1NC(=O)/C(=C/c2ccc(Cl)cc2)O1 (stereo not drawn)	> 128	> 128	> 128
CC(=O)NC[C@H]1CN(c2ccc(N3CCOCC3)c(F)c2)C(=O)O1 [LINEZOLID]	1 (≈ 2.96 µM)	> 128	0.5 (≈ 1.48 µM)
CCCCCC1NC(=O)/C(=C/c2ccc(C)cc2)O1 (stereo not drawn)	> 128	> 128	32 (≈ 123 µM)
CCCCCC1NC(=O)/C(=C/c2ccccc2[N+](=O)[O-])O1 (stereo not drawn)	> 128	> 128	> 128
CCCCCC1NC(=O)/C(=C/c2ccc(C(C)(C)C)cc2)O1 (stereo not drawn)	> 128	> 128	> 128
